From PMC8865417, “Receptor Interaction Profiles of 4-Alkoxy-3,5-Dimethoxy-Phenethylamines (Mescaline Derivatives) and Related Amphetamines” (Frontiers in Pharmacology, 2022)
Where two headings read alike, the source gives them in different places.

Columns and labels:
h5-HT2A receptor [1] = biological target: T1, h5-HT2A receptor (Homo sapiens, UniProt P28223); settings: read-out: h5-HT2A Receptor binding Ki ± SD; cited from earlier work
T1 construct: expressed in transfected cells; host or cells: HEK 293 cells (membrane preparations)

h5-HT1A receptor = biological target: T2, h5-HT1A receptor (Homo sapiens, UniProt P08908); assay: Radioligand binding at h5-HT1A receptor ([3H]8-OH-DPAT)
T2 construct: expressed in transfected cells; host or cells: HEK 293 cells (membrane preparations)
T2 sequence (P08908 1-422): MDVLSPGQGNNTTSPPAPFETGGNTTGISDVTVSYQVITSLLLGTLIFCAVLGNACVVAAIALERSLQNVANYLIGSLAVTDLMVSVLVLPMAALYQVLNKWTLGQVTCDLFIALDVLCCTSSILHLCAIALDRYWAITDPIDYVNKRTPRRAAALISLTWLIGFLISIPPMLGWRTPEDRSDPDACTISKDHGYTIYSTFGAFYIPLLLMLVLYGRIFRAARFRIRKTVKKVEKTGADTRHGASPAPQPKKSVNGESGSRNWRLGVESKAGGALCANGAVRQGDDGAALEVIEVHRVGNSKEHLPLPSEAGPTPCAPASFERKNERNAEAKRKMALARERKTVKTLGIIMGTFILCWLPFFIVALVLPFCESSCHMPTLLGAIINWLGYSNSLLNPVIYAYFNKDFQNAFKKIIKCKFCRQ

h5-HT2A receptor [2] = biological target: T1, h5-HT2A receptor; assay: Radioligand binding at h5-HT2A receptor ([3H]ketanserin); settings: for Ki: h5-HT2A Receptor binding Ki ± SD, [3H]ketanserin, mean ± SD
h5-HT2C receptor = biological target: T3, h5-HT2C receptor (Homo sapiens, UniProt P28335); assay: biochemical; assay type: binding; settings: [3H]mesulergine; mean ± SD; read-out: h5-HT2C Receptor binding Ki ± SD
T3 construct: expressed in transfected cells; host or cells: HEK 293 cells (membrane preparations)
T3 sequence (P28335 33-458): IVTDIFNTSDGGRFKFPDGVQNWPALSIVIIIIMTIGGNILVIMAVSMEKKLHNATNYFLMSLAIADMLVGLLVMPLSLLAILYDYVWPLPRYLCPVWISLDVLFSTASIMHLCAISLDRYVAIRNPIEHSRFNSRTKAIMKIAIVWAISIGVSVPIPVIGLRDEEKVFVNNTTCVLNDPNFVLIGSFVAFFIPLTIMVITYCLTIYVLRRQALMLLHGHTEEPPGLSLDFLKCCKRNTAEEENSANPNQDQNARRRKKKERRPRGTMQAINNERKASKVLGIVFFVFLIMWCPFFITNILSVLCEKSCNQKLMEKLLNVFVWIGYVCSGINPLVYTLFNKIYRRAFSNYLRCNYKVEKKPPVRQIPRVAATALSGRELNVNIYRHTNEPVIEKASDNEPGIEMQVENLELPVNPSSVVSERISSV

rat TAAR1 = biological target: T4, rat TAAR1 (Rattus norvegicus, UniProt Q923Y9); assay: Radioligand binding at rat TAAR1 ([3H]RO5166017)
T4 construct: expressed in transfected cells; host or cells: HEK 293 cells (membrane preparations)

mouse TAAR1 = biological target: T5, mouse TAAR1 (Mus musculus, UniProt Q923Y8); assay: Radioligand binding at mouse TAAR1 ([3H]RO5166017)
T5 construct: expressed in transfected cells; host or cells: HEK 293 cells (membrane preparations)

hα1A adrenergic receptor = biological target: T6, hα1A adrenergic receptor (Homo sapiens, UniProt P35348); assay: Radioligand binding at hα1A adrenergic receptor ([3H]prazosin); settings: mean ± SD
T6 construct: expressed in transfected cells; host or cells: Chinese hamster ovary cells (membrane preparations)
T6 sequence (P35348 1-466): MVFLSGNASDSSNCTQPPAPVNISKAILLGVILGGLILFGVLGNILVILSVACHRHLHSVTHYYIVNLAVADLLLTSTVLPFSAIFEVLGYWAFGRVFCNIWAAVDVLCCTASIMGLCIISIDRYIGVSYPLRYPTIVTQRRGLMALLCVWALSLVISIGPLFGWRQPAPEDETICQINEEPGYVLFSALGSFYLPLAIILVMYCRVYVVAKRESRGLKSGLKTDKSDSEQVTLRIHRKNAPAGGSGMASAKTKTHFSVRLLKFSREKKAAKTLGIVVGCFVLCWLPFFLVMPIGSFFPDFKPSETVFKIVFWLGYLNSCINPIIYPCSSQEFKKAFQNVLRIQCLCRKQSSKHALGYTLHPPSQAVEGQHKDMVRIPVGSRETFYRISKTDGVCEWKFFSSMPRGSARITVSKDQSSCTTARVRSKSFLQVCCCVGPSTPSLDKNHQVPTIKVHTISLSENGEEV

hα2A adrenergic receptor = biological target: T7, hα2A adrenergic receptor (Homo sapiens, UniProt P08913); assay: Radioligand binding at hα2A adrenergic receptor ([3H]rauwolscine)
T7 construct: expressed in transfected cells; host or cells: Chinese hamster lung cells (membrane preparations)
T7 sequence (P08913 1-465): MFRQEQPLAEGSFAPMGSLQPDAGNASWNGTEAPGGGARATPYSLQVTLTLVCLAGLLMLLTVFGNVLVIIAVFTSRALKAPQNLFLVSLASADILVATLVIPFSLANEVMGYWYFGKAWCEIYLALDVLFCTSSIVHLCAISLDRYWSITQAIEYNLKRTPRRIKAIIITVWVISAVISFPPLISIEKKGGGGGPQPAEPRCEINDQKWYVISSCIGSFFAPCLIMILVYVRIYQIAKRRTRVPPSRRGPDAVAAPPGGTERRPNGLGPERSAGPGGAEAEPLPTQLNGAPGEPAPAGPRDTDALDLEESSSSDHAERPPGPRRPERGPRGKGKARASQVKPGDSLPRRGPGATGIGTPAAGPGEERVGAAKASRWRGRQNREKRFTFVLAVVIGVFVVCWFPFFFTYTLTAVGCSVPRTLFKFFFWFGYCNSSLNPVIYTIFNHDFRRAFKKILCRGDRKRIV

[3] = biological target: T8, dopaminergic hD2 receptor (Homo sapiens, UniProt P14416); assay: Radioligand binding at dopaminergic hD2 receptor ([3H]spiperone)
T8 construct: expressed in transfected cells; host or cells: HEK 293 cells (membrane preparations)

hNET = biological target: T9, hNET (Homo sapiens, UniProt P23975); assay: Radioligand binding at hNET (N-methyl-[3H]nisoxetine)
T9 construct: expressed in transfected cells; host or cells: HEK 293 cells (membrane preparations)

hDAT = biological target: T10, hDAT (Homo sapiens, UniProt Q01959); assay: Radioligand binding at hDAT ([3H]WIN35,428)
T10 construct: expressed in transfected cells; host or cells: HEK 293 cells (membrane preparations)

hSERT = biological target: T11, hSERT (Homo sapiens, UniProt P31645); assay: Radioligand binding at hSERT ([3H]citalopram)
T11 construct: expressed in transfected cells; host or cells: HEK 293 cells (membrane preparations)

humans = settings: ref Shulgin and Shulgin 1991, cited from earlier work; for Duration of action: humans; for Duration of action / Human oral dose: Shulgin and Shulgin 1997, Trachsel et al., 2013; for Human oral dose: psychedelic dose in humans
human 5-HT2B receptor = human 5-HT2B receptor (Homo sapiens, UniProt P41595); settings: for EC50: h5-HT2B Activation potency EC50 ± SD, HEK 293 cells, calcium FLIPR, mean ± SD
human 5-HT2A receptor [4] = biological target: T12, human 5-HT2A receptor (Homo sapiens, UniProt P28223); set-up: expressed in transfected cells; host or cells: NIH-3T3 cells (mouse embryonic fibroblasts); settings: read-out: h5-HT2A Activation potency EC50 ± SD; mescaline; ref Rickli et al. (2016); cited from earlier work
human TAAR1 = biological target: T13, human TAAR1 (Homo sapiens, UniProt Q96RJ0); assay: Activity at the human TAAR1 (cAMP assay, HEK 293 cells); assay type: cell-based
T13 construct: expressed in transfected cells; host or cells: HEK 293 cells
T13 sequence (Q96RJ0 1-339): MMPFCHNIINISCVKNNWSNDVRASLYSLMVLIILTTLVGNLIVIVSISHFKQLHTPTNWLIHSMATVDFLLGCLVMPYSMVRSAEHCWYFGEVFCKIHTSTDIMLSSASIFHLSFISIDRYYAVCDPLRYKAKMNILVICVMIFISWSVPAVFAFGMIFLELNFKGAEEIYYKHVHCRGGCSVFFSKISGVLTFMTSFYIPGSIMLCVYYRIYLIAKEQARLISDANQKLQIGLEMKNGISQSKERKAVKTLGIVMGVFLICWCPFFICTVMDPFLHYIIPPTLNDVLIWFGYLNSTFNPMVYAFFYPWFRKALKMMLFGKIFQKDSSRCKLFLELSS
Description: Once 80–90% confluency was reached, the cells were collected by removing the medium, washing with PBS and then adding 5 ml of trypsin/EDTA solution for 5 min at 37°C. Next, 45 ml of medium was added and the entire mixture was transferred into a falcon tube. The tube was then centrifuged at room temperature for 3 min at 900 revolutions per minute (rpm). Next, the supernatant was removed in order to resuspend the remaining cell pellet in fresh medium to 5 × 10^5 cells/ml. Hundred microliter of the cells was transferred into a 96-well plate ([…]; BIOCOAT 6640, Becton Dickinson, Allschwil, Switzerland) and incubated for 20 h at 37°C.
For the cAMP assay, the aspirated medium was replaced with 50 μl PBS without Ca^2+ and Mg^2+ ions. Using snap inversion, the PBS was extracted and the plate was gently tapped against tissue. Next, 90 μl of Krebs-Ringer Bicarbonate buffer (KRB, Sigma-Aldrich) containing 1 mM IBMX was added and incubated for 60 min at 37°C and 5% CO2/95% air. Each test compound was examined in duplicate in a concentration range between 300 pM and 30 μM. A standard curve with a range of cAMP concentrations (0.13 nM–10 μM) was created for each 96-well plate. Each experiment was accompanied with a reference plate that included RO5256390, β-phenylethylamine and p-tyramine. The cells were exposed to either 30 μl of compound solution, 30 μl of β-phenylethylamine (as maximal response), or a basal control in PBS (containing 1 mM IBMX) for 40 min at 37°C. Next, under forceful shaking using black lids, the cells were exposed to 50 μl of 3× detection mix solution (composed of Ru-cAMP Alexa700 anti-cAMP antibody and lysis buffer) for 120 min at room temperature. Using the NanoScan reader (Innovate Optische Messtechnik, Berlin, Germany; 456 nm excitation wavelength; 630 and 700 nm emission wavelengths), the fluorescence was examined and the FRET signal was determined using the following equation; FRET (700 nm)- P × FRET (630 nm), where P = Ru (700 nm)/Ru (630 nm).

human 5-HT2A receptor [5] = biological target: T12, human 5-HT2A receptor; settings: for Emax: NIH3T3, read-out: h5-HT2A Activation efficacy max ± SD, relative to 5-HT = 100%
head twitch response = tested on: head twitch response; set-up: method as in Halberstadt et al. (2019); settings: ref Halberstadt et al. (2019); cited from earlier work

T5 sequence (Q923Y8 whole entry): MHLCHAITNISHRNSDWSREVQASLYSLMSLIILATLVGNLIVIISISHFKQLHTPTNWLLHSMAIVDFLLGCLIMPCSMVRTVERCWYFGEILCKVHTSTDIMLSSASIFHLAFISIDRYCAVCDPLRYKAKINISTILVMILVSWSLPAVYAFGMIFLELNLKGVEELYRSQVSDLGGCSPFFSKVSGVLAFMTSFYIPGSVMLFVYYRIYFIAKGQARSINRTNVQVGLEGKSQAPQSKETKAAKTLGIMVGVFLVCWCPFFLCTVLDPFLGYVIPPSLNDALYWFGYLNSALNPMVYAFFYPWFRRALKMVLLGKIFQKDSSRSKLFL
T9 sequence (P23975 whole entry): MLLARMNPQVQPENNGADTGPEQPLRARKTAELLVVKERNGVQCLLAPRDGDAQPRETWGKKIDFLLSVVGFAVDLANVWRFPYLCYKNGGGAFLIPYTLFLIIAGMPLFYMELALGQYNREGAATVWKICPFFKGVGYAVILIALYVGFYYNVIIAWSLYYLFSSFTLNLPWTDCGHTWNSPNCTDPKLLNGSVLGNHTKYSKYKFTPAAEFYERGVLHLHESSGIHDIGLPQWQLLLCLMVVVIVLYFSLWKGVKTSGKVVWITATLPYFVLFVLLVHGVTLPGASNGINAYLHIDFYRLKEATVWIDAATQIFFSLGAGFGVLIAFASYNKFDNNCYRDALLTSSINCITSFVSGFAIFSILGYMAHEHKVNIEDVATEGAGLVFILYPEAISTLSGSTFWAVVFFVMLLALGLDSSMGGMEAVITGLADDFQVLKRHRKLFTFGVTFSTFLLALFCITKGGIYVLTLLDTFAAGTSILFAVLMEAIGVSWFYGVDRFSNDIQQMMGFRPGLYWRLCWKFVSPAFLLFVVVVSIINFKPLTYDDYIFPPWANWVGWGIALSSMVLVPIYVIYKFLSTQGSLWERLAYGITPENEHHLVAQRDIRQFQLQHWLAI
T12 sequence (P28223 whole entry): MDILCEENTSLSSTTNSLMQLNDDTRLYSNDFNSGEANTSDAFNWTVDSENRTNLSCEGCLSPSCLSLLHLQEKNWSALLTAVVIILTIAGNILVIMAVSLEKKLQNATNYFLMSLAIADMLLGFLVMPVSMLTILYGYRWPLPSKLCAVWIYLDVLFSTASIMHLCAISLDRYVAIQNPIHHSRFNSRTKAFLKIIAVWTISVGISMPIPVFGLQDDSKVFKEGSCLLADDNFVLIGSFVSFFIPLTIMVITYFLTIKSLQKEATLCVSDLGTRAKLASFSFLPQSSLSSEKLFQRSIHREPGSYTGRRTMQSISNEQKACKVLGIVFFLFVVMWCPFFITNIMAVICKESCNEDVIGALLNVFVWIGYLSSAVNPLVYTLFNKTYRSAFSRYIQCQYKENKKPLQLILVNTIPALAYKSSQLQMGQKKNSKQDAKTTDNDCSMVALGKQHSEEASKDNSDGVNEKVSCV
T1 sequence (P28223 whole entry): as above
T8 sequence (P14416 whole entry): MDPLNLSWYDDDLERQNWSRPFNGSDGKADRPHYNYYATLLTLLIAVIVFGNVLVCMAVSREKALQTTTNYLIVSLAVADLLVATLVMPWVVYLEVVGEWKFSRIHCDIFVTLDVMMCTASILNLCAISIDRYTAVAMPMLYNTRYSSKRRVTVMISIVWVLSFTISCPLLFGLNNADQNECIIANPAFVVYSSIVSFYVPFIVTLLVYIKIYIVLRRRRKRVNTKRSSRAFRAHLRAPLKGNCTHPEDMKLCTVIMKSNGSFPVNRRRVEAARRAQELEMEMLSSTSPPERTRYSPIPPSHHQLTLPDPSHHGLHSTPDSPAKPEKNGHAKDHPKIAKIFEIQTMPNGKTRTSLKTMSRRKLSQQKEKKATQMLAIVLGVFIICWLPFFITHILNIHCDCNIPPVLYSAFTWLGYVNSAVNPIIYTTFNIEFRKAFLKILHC
T4 sequence (Q923Y9 whole entry): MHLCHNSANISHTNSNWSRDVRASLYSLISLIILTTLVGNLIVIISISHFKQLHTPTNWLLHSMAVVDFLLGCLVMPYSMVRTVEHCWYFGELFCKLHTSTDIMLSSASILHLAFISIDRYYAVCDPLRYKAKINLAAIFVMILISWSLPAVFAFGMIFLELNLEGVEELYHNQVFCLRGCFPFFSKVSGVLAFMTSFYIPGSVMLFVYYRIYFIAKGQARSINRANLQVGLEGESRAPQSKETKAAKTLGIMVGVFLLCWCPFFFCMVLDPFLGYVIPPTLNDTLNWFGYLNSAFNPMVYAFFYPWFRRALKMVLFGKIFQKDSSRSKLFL
human 5-HT2B receptor, sequence (P41595 whole entry): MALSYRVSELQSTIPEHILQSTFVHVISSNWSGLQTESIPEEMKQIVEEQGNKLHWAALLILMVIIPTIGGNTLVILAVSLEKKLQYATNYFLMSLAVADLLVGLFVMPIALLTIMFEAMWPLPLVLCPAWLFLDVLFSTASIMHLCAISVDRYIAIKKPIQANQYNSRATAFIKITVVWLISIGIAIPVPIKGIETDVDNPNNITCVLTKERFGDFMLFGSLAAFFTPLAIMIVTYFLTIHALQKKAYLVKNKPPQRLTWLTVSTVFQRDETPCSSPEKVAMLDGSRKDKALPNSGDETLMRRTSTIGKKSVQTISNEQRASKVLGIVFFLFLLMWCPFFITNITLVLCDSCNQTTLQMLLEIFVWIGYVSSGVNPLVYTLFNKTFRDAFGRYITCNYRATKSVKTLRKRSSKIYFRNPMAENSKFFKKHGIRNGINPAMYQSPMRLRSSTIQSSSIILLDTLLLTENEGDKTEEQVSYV
T10 sequence (Q01959 whole entry): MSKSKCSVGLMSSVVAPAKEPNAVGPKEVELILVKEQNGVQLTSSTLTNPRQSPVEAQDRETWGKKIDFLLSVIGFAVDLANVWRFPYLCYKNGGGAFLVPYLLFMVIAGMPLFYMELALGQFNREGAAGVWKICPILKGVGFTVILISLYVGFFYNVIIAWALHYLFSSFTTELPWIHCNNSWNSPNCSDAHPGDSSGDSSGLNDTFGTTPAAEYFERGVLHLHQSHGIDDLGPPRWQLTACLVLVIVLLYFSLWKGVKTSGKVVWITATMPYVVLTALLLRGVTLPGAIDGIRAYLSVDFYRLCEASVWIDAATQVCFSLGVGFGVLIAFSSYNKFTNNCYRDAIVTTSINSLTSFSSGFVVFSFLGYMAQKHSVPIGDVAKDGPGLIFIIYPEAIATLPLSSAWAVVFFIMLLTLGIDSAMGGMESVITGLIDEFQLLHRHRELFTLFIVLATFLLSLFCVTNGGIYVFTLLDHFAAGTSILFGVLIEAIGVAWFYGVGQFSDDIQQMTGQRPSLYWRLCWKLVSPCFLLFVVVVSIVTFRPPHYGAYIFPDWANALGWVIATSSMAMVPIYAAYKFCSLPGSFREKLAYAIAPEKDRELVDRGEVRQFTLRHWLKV
T11 sequence (P31645 whole entry): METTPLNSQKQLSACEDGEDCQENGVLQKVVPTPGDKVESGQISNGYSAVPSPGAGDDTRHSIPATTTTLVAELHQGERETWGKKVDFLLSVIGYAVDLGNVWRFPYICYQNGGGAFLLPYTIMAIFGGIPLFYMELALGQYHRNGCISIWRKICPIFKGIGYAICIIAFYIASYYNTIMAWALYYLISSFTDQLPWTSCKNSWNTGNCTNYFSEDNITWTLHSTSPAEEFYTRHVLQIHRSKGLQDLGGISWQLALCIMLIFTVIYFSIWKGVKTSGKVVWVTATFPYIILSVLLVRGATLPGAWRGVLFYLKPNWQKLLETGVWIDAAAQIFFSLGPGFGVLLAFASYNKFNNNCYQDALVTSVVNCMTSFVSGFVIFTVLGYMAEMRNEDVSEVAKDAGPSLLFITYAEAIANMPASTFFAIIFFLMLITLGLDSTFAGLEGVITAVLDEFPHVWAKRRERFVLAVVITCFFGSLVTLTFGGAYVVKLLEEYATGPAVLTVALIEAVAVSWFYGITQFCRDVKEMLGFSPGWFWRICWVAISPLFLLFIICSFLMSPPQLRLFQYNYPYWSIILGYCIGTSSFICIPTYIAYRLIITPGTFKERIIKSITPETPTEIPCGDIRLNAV

For `COc1cc(CCN)c(OC)cc1Br` [2C-B], the Ki (h5-HT2A receptor [1]) is given as 0.0069 ± 0.0018 µM.

`COc1cc(CCN)cc(OC)c1OC` [compound 5, 3,4,5-trimethoxyphenethylamine] gave a Ki (h5-HT1A receptor) of 6.7 µM, a Ki (h5-HT2A receptor [2]) of 9.4 µM and a Ki (h5-HT2C receptor) of 9.9 µM. The Ki (rat TAAR1) was 3 µM, the Ki (mouse TAAR1) was greater than 4.2 µM and the Ki (hα1A adrenergic receptor) was greater than 8.7 µM. It also gave a Ki (hα2A adrenergic receptor) of 2 µM, a Ki [3] greater than 6.3 µM and a Ki (hNET) greater than 9.7 µM. The Ki (hDAT) was greater than 8.5 µM, the Ki (hSERT) was greater than 7.5 µM and the Duration of action (humans; listed as mescaline) was 8 to 12 h. For the same compound, the Human oral dose (humans) was 180 to 360 mg, the “Psychedelic / active dose in humans” value (humans) was 180 to 360 mg and the EC50 (human 5-HT2B receptor) was greater than 10 µM. The EC50 (human 5-HT2A receptor [4]) was 10 µM.

`COc1cc(CC(C)N)cc(OC)c1OC` (stereo not drawn) [compound 6, 3,4,5-trimethoxyamphetamine] showed a Ki (h5-HT1A receptor) greater than 5.6 µM, a Ki (h5-HT2A receptor [2]) greater than 12 µM and an EC50 (human TAAR1) greater than 10 µM. The Ki (rat TAAR1) was 3.2 µM, the Ki (mouse TAAR1) was 1.8 µM and the Ki (hα1A adrenergic receptor) was greater than 8.7 µM. It also gave a Ki (hα2A adrenergic receptor) of 4.03 µM, a Ki [3] greater than 6.3 µM and a Ki (hNET) greater than 9.7 µM. For the same compound, the Ki (hDAT) was greater than 8.5 µM, the Ki (hSERT) was greater than 7.5 µM and the Duration of action (humans) was 6 to 8 h. For the same compound, the Human oral dose (humans; listed as TMA) was 100 to 250 mg, the “Psychedelic / active dose in humans” value (humans) was 100 to 200 mg and the EC50 (human 5-HT2A receptor [5]) was 1.7 ± 0.4 µM. It also gave an Emax (human 5-HT2A receptor [5]) of 40 to 73% and an EC50 (human 5-HT2B receptor) greater than 10 µM.

With `CCOc1c(OC)cc(CC(C)N)cc1OC` (stereo not drawn) [compound 21, 3,5-dimethoxy-4-ethoxyamphetamine] the Ki (h5-HT1A receptor) was greater than 5.6 µM, the “Selectivity 5-HT2A vs. 5-HT2C” value (h5-HT2A receptor [2]; binding ratio) was 1.3 and the Ki (h5-HT2A receptor [2]) was 3.7 µM. The Ki (h5-HT2C receptor) was 4.9 µM, the Ki (rat TAAR1) was greater than 4.7 µM and the Ki (mouse TAAR1) was greater than 4.2 µM. The Ki (hα1A adrenergic receptor) was greater than 8.7 µM, the Ki (hα2A adrenergic receptor) was greater than 5.1 µM and the Ki [3] was greater than 6.3 µM. The Ki (hNET) was greater than 9.7 µM, the Ki (hDAT) was greater than 8.5 µM and the Ki (hSERT) was greater than 7.5 µM. For the same compound, the Head twitch response (head twitch response) was “induced a head twitch response with almost identical potency”, the EC50 (human 5-HT2A receptor [5]) was 0.16 ± 0.05 µM and the Emax (human 5-HT2A receptor [5]) was 86 to 102%. It also gave an Emax (human 5-HT2B receptor; HEK293, read-out: h5-HT2B Activation efficacy max ± SD, relative to 5-HT = 100%) of 18 to 29% and an EC50 (human 5-HT2B receptor) of 0.095 ± 0.13 µM.
